# Measured values taken from US8574831B2, “Mutational profiles in HIV-1 reverse transcriptase correlated with phenotypic drug resistance” (Virco N.V., priority 2000, dated 2013).
# Test system: HIV with mutations in the HIV protease sequence
# Assay: Phenotypic fold resistance to protease inhibitors, protease mutations 84A/84L/84C/54M/54L/54V in a background (Examples 8-13)
# Assay type: cell-based, HIV-1
# Procedure: As is the case with the genotyping assays, the recombinant virus assay starts with the amplification of viral target sequences by means of PCR. The amplicons are incorporated into a proviral laboratory clone with sequences homologous to those present in the amplicon deleted. This generates a stock of chimeric viruses. The viruses are tested for their ability to grow in the presence of different concentrations of drugs. Results are obtained by calculating IC50 values for each inhibitor and by reporting the results as IC50 values, expressed in μM concentrations, or by computing the ratio of the IC50 values found for the chimeric virus to the IC50 values found for a wild type susceptible laboratory virus tested in parallel. In the latter case, resistance is expressed as “fold-resistance” compared to a wild-type susceptible HIV-1 strain. In order to meet the need for high-volume testing and a short turn-around time for an individual test, the latest generation of phenotyping assays has undergone further modifications. The use of reporter gene systems for susceptibility testing allows the implementation of laboratory automation and standardization. See Pauwels, et al., J. Virol. Methods 20, 309-321 (1998); Paulous, S., et al., International Workshop on HIV Drug Resistance, Treatment Strategies and Eradication, St. Petersburg, Fla., USA. Abstr. 46 (1997); and Deeks, S. G., et al., 2nd International Workshop on HIV Drug Resistance and Treatment Strategies, Lake Maggiore, Italy. Abstr. 53 (1998).
# The ANTIVIROGRAM® assay (Virco) (WO 97/27480) is based on homologous recombination of patient derived HIV-1 gag/PR/RT sequences into a proviral HIV-1 clone correspondingly deleted for the gag/PR/RT sequences. See Pauwels, et al., J. Virol. Methods 20, 309-321 (1998). A similar assay (Phenosense ViroLogic) is based on enzymatic ligation of patient-derived PR/RT sequences into a correspondingly deleted proviral vector carrying an indicator gene, luciferase, inserted in the deleted HIV-1 envelope gene. See Deeks, S. G., et al., 2nd International Workshop on HIV Drug Resistance and Treatment Strategies, Lake Maggiore, Italy. Abstr. 53 (1998). Hertogs et al. Antimicrob. Agents Chemother. 44(3) 568-573 (2000) the disclosures of which are herein incorporated by reference.
# The methods of monitoring HIV-1 drug resistance, may also be used in combination with phenotypic drug resistance testing of viral isolates. For example, in one embodiment, a phenotypic test is utilized that is based upon the construction of chimeric HIV-1 strains composed of the protease (PR) and reverse transcriptase (RT) gene sequences which are isolated and amplified from the patient viral RNA. These strains may subsequently be recombined inside CD4+ T cells with a standard laboratory isogenic (HXB2) HIV-1 DNA construct from which the PR/RT gene sequences were deleted. The recombinant strains may then be grown in the presence of the above-mentioned antiviral drugs and the susceptibility of the viral isolates may be expressed as fold-change value of the IC50 of the drug on the patient isolates over the IC50 of the drug on a wild-type laboratory reference strain.
smiles,measurement,setting,value
"CC(C)(C)NC(=O)[C@@H]1CN(Cc2cccnc2)CCN1C[C@@H](O)C[C@@H](Cc1ccccc1)C(=O)N[C@H]1c2ccccc2C[C@H]1O [Indinavir, indinavir]",Fold change in IC50,"Table 12, V055199, genotype 10I + 33F + 54M + 90M",2.3 fold
same,Fold change in IC50,"Table 13, V19263, genotype 77I",0.4 fold
same,Fold change in IC50,"Table 13, V20160, genotype WT",0.9 fold
same,Fold change in IC50,"Table 13, V021667, genotype 10I",0.7 fold
same,Fold change in IC50,"Table 13, V030496, genotype 10I + 77I",0.4 fold
same,Fold change in IC50,"Table 13, V048868, genotype 10I + 54L + 71V + 77I + 90M",6.2 fold
same,Fold change in IC50,"Table 13, V048874, genotype 10I + 33F + 54L + 71V + 77I + 90M",2.1 fold
same,Fold change in IC50,"Table 13, V048875, genotype 10I + 33F + 54L + 71V + 77I + 90M",3.7 fold
same,Fold change in IC50,"Table 13, V048877, genotype 10I + 33F + 77I + 90M",2.9 fold
same,Fold change in IC50,"Table 13, V048880, genotype 10I + 33F + 77I + 90M",1.3 fold
same,Fold change in IC50,"Table 13, V052940, genotype 71V",0.7 fold
same,Fold change in IC50,"Table 13, V052942, genotype 10I + 71V",0.6 fold
same,Fold change in IC50,"Table 13, V052943, genotype 10I + 90M",0.5 fold
same,Fold change in IC50,"Table 13, V052944, genotype 10I + 90M",0.5 fold
same,Fold change in IC50,"Table 13, V052945, genotype 77I + 90M",0.6 fold
same,Fold change in IC50,"Table 13, V052946, genotype 71V + 90M",0.9 fold
same,Fold change in IC50,"Table 13, V052947, genotype 10I + 77I + 90M",2.9 fold
same,Fold change in IC50,"Table 13, V052948, genotype 10I + 71V + 90M",8.6 fold
same,Fold change in IC50,"Table 13, V052949, genotype 10I + 71V + 77I + 90M",2.7 fold
same,Fold change in IC50,"Table 13, V052950, genotype 33F",0.6 fold
same,Fold change in IC50,"Table 13, V052951, genotype 33F + 77I",0.4 fold
same,Fold change in IC50,"Table 13, V052953, genotype 10I + 33F + 77I",0.8 fold
same,Fold change in IC50,"Table 13, V052954, genotype 33F + 77I + 90M",1.7 fold
same,Fold change in IC50,"Table 13, V052955, genotype 33F + 71V + 90M",5.3 fold
same,Fold change in IC50,"Table 13, V052968, genotype 10L/I + 33F/L + 54L + 77I",1.3 fold
same,Fold change in IC50,"Table 13, V052969, genotype 10I + 33F + 54L + 90M",1.3 fold
same,Fold change in IC50,"Table 13, V052970, genotype 54L",0.6 fold
same,Fold change in IC50,"Table 13, V052971, genotype 10I + 54L",0.7 fold
same,Fold change in IC50,"Table 13, V052972, genotype 54L + 77I",0.8 fold
same,Fold change in IC50,"Table 13, V052973, genotype 10I + 54L + 77I",0.8 fold
same,Fold change in IC50,"Table 13, V052974, genotype 10I + 54L + 90M",1.7 fold
same,Fold change in IC50,"Table 13, V052975, genotype 10I + 54L + 71V + 90M",10.2 fold
same,Fold change in IC50,"Table 13, V052976, genotype 10I + 54L + 71V + 77I + 90M",1.7 fold
same,Fold change in IC50,"Table 13, V053832, genotype 10I + 33F",0.4 fold
same,Fold change in IC50,"Table 13, V053854, genotype 54L + 71V",1.7 fold
same,Fold change in IC50,"Virco ID 214846, genotype 10I + 33F + 54V + 71V + 77I + 90M, vs mean IC50 of wild type laboratory HIV strain",13.8 fold
same,Fold change in IC50,"Virco ID V021667, genotype 10I, vs mean IC50 of wild type laboratory HIV strain",0.7 fold
same,Fold change in IC50,"Virco ID V030496, genotype 10I + 77I, vs mean IC50 of wild type laboratory HIV strain",0.4 fold
same,Fold change in IC50,"Virco ID V048876, genotype 33F + 54V + 77I + 90M, vs mean IC50 of wild type laboratory HIV strain",0.6 fold
same,Fold change in IC50,"Virco ID V048877, genotype 10I + 33F + 77I + 90M, vs mean IC50 of wild type laboratory HIV strain",2.9 fold
same,Fold change in IC50,"Virco ID V048880, genotype 10I + 33F + 77I + 90M, vs mean IC50 of wild type laboratory HIV strain",1.3 fold
same,Fold change in IC50,"Virco ID V052940, genotype 71V, vs mean IC50 of wild type laboratory HIV strain",0.7 fold
same,Fold change in IC50,"Virco ID V052942, genotype 10I + 71V, vs mean IC50 of wild type laboratory HIV strain",0.6 fold
same,Fold change in IC50,"Virco ID V052943, genotype 10I + 90M, vs mean IC50 of wild type laboratory HIV strain",0.5 fold
same,Fold change in IC50,"Virco ID V052944, genotype 10I + 90M, vs mean IC50 of wild type laboratory HIV strain",0.5 fold
same,Fold change in IC50,"Virco ID V052946, genotype 71V + 90M, vs mean IC50 of wild type laboratory HIV strain",0.9 fold
same,Fold change in IC50,"Virco ID V052947, genotype 10I + 77I + 90M, vs mean IC50 of wild type laboratory HIV strain",2.9 fold
same,Fold change in IC50,"Virco ID V052948, genotype 10I + 71V + 90M, vs mean IC50 of wild type laboratory HIV strain",8.6 fold
same,Fold change in IC50,"Virco ID V052949, genotype 10I + 71V + 77I + 90M, vs mean IC50 of wild type laboratory HIV strain",2.7 fold
same,Fold change in IC50,"Virco ID V052950, genotype 33F, vs mean IC50 of wild type laboratory HIV strain",0.6 fold
same,Fold change in IC50,"Virco ID V052951, genotype 33F + 77I, vs mean IC50 of wild type laboratory HIV strain",0.4 fold
same,Fold change in IC50,"Virco ID V052953, genotype 10I + 33F + 77I, vs mean IC50 of wild type laboratory HIV strain",0.8 fold
same,Fold change in IC50,"Virco ID V052954, genotype 33F + 77I + 90M, vs mean IC50 of wild type laboratory HIV strain",1.7 fold
same,Fold change in IC50,"Virco ID V052955, genotype 33F + 71V + 90M, vs mean IC50 of wild type laboratory HIV strain",5.3 fold
same,Fold change in IC50,"Virco ID V052957, genotype 10I + 33F + 54V + 90M, vs mean IC50 of wild type laboratory HIV strain",1.4 fold
same,Fold change in IC50,"Virco ID V052958, genotype 10I + 33F + 54V + 77I + 90M, vs mean IC50 of wild type laboratory HIV strain",16.3 fold
same,Fold change in IC50,"Virco ID V052959, genotype 10I + 33F + 54V + 77I + 90M, vs mean IC50 of wild type laboratory HIV strain",12.8 fold
same,Fold change in IC50,"Virco ID V052960, genotype 10I + 33F + 54V + 71V + 90M, vs mean IC50 of wild type laboratory HIV strain",9.9 fold
same,Fold change in IC50,"Virco ID V052961, genotype 54V, vs mean IC50 of wild type laboratory HIV strain",0.7 fold
same,Fold change in IC50,"Virco ID V052962, genotype 10I + 54V, vs mean IC50 of wild type laboratory HIV strain",0.8 fold
same,Fold change in IC50,"Virco ID V052963, genotype 54V + 77I + 90M, vs mean IC50 of wild type laboratory HIV strain",1.2 fold
same,Fold change in IC50,"Virco ID V052964, genotype 54V + 71V + 90M, vs mean IC50 of wild type laboratory HIV strain",0.7 fold
same,Fold change in IC50,"Virco ID V052965, genotype 10I + 54V + 77I + 90M, vs mean IC50 of wild type laboratory HIV strain",8.2 fold
same,Fold change in IC50,"Virco ID V052966, genotype 10I + 54V + 71V + 90M, vs mean IC50 of wild type laboratory HIV strain",7.7 fold
same,Fold change in IC50,"Virco ID V052967, genotype 10I + 54V + 71V + 77I + 90M, vs mean IC50 of wild type laboratory HIV strain",0.4 fold
same,Fold change in IC50,"Virco ID V053358, genotype 33F + 54V + 77I + 90M, vs mean IC50 of wild type laboratory HIV strain",1.2 fold
same,Fold change in IC50,"Virco ID V053831, genotype 33F + 54V, vs mean IC50 of wild type laboratory HIV strain",5.4 fold
same,Fold change in IC50,"Virco ID V053832, genotype 10I + 33F, vs mean IC50 of wild type laboratory HIV strain",0.4 fold
